How the values were obtained:
Conditions in all cases: 72 h
HepG2 [1] = assay: drug sensitivity score (DSS) for viability; higher = more toxic; extreme values may be limits of the assay
Calu-3 [2] = assay: as above
Vero E6 [3] = assay: as above
U2OS [4] = assay: as above
HepG2 [5] = assay: cell viability relative to DMSO; higher = less toxic
Vero E6 [6] = assay: as above
Caco-2 [7] = assay: as above
U2OS [8] = assay: as above
Caco-2 [9] = assay: drug sensitivity score (DSS) for viability; higher = more toxic; extreme values may be limits of the assay
HepG2 [10] = assay: relative viability EC50 (midpoint between 100% and the lowest measured viability); higher = less toxic
Vero E6 [11] = assay: as above
Caco-2 [12] = assay: as above
U2OS [13] = assay: as above
Calu-3 [14] = assay: cell viability relative to DMSO; higher = less toxic

| Compound | drug sensitivity score (HepG2 [1]) | drug sensitivity score (Calu-3 [2]) | drug sensitivity score (Vero E6 [3]) | drug sensitivity score (U2OS [4]) | cell viability (HepG2 [5]; 1 nM) [%] | cell viability (HepG2 [5]; 10 nM) [%] | cell viability (HepG2 [5]; 100 nM) [%] | cell viability (HepG2 [5]; 1000 nM) [%] | cell viability (HepG2 [5]; 10000 nM) [%] | cell viability (Vero E6 [6]; 1 nM) [%] | cell viability (Vero E6 [6]; 10 nM) [%] | cell viability (Vero E6 [6]; 100 nM) [%] | cell viability (Vero E6 [6]; 1000 nM) [%] | cell viability (Vero E6 [6]; 10000 nM) [%] | cell viability (Caco-2 [7]; 1 nM) [%] | cell viability (Caco-2 [7]; 10 nM) [%] | cell viability (Caco-2 [7]; 100 nM) [%] | cell viability (Caco-2 [7]; 1000 nM) [%] | cell viability (Caco-2 [7]; 10000 nM) [%] | cell viability (U2OS [8]; 1 nM) [%] | cell viability (U2OS [8]; 10 nM) [%] | cell viability (U2OS [8]; 100 nM) [%] | cell viability (U2OS [8]; 1000 nM) [%] | cell viability (U2OS [8]; 10000 nM) [%] | drug sensitivity score (Caco-2 [9]) | relative viability EC50 (HepG2 [10]) [µM] | relative viability EC50 (Vero E6 [11]) [µM] | relative viability EC50 (Caco-2 [12]) [µM] | relative viability EC50 (U2OS [13]) [µM] | cell viability (Calu-3 [14]; 1 nM) [%] | cell viability (Calu-3 [14]; 10 nM) [%] | cell viability (Calu-3 [14]; 100 nM) [%] | cell viability (Calu-3 [14]; 1000 nM) [%] | cell viability (Calu-3 [14]; 10000 nM) [%] |
| --- | --- | --- | --- | --- | --- | --- | --- | --- | --- | --- | --- | --- | --- | --- | --- | --- | --- | --- | --- | --- | --- | --- | --- | --- | --- | --- | --- | --- | --- | --- | --- | --- | --- | --- |
| O=C(CCCN1CCN(c2ccccn2)CC1)c1ccc(F)cc1 [azaperone] | 0.7 | 0.1 | 0 | 0 | – | – | – | – | – | – | – | – | – | – | – | – | – | – | – | – | – | – | – | – | – | – | – | – | – | – | – | – | – | – |
| CN(C)CCn1nnnc1SCC1=C(C(=O)O)N2C(=O)[C@@H](NC(=O)Cc3csc(N)n3)[C@H]2SC1 [cefotiam] | 0 | – | 0 | 0 | 102 | 94.5 | 99.7 | 96.5 | 104 | 99.3 | 95.5 | 96 | 88.1 | 104 | 106 | 96.7 | 101 | 103 | 104 | 100 | 97.2 | 106 | 103 | 103 | 0 | > 10 | > 10 | > 10 | > 10 | – | – | – | – | – |
| CCCNC(=O)NS(=O)(=O)c1ccc(Cl)cc1 [chlorpropamide] | 0 | – | 0 | 0 | 104 | 103 | 102 | 95.4 | 99.8 | 97.5 | 98.2 | 102 | 103 | 104 | 92.6 | 108 | 87.1 | 99.1 | 95.2 | 97.4 | 103 | 97.4 | 99.9 | 93.6 | 0 | > 10 | > 10 | > 10 | > 10 | – | – | – | – | – |
| C#C[C@]1(O)CC[C@H]2[C@@H]3CCC4=Cc5oncc5C[C@]4(C)[C@H]3CC[C@@]21C [danazol] | 0 | 0 | 0 | 0 | – | – | – | – | – | – | – | – | – | – | – | – | – | – | – | – | – | – | – | – | – | – | – | – | – | – | – | – | – | – |
| CCN1C(=O)NC(c2ccccc2)C1=O (centres undefined) [ethotoin] | 0 | – | 0 | 0 | – | – | – | – | – | – | – | – | – | – | – | – | – | – | – | – | – | – | – | – | – | – | – | – | – | – | – | – | – | – |
| CCOc1ccc2nc(S(N)(=O)=O)sc2c1 [ethoxzolamide] | 0 | 0 | 0 | 0 | 101 | 104 | 98.6 | 125 | 116 | 84.1 | 93.1 | 89.4 | 96.3 | 116 | – | 102 | 135 | 98.6 | 95.5 | 96.6 | 97.9 | 97.6 | 99.3 | 105 | 0 | – | – | – | – | 95.3 | 101 | 101 | 101 | 113 |
| CCOC(=O)c1ccc(NC2CCCCC2)c(N)c1 [ferrostatin-1] | 0 | – | 0 | 0 | 94 | 108 | 97.8 | 97 | 113 | 97.6 | 101 | 94.3 | 95.1 | 100 | 99.8 | 99.9 | 102 | 102 | 86.1 | 97.5 | 96.6 | 98.6 | 98.9 | 96.6 | 0.1 | > 10 | > 10 | > 10 | > 10 | – | – | – | – | – |
| CC1CCc2cc(F)cc3c(=O)c(C(=O)O)cn1c23 (centres undefined) [flumequine] | 0 | – | 0 | 0 | 95.3 | 97.7 | 89.4 | 96.4 | 92.7 | 103 | 94.7 | 107 | 108 | 92.1 | 91 | 75.1 | 96.5 | 112 | 121 | 98.1 | 98.3 | 102 | 97.9 | 104 | 0 | > 10 | > 10 | > 10 | > 10 | – | – | – | – | – |
| C/C(=C\c1csc(C)n1)[C@@H]1C[C@@H]2O[C@]2(C)CCC[C@H](C)[C@H](O)[C@@H](C)C(=O)C(C)(C)[C@@H](O)CC(=O)N1 [ixabepilone] | 21.7 | 7.2 | 9.1 | 10.9 | 107 | 103 | 43.6 | 33.6 | 17.3 | 108 | 108 | 84.6 | 60.2 | 36.5 | 101 | 98.4 | 65.2 | 48.8 | 49.2 | 99.7 | 99.3 | 101 | 41.3 | 28 | 13.6 | 0.0721 | 0.493 | 0.0664 | 0.556 | 108 | 108 | 88.1 | 67.2 | 60.8 |
| C=C1/C(=C\C=C2/CCC[C@]3(C)[C@@H]([C@H](C)OCCC(C)(C)O)CC[C@@H]23)C[C@@H](O)C[C@@H]1O [maxacalcitol] | 0 | – | 0 | 0 | 105 | 99.3 | 98.3 | 91.5 | 98.5 | 109 | 105 | 102 | 100 | 94.6 | 91.9 | 91.3 | 94.1 | 87.8 | 101 | 102 | 103 | 93.5 | 91.6 | 97.4 | 0 | > 10 | > 10 | > 10 | > 10 | – | – | – | – | – |
| C[N+](C)(C)NCCC(=O)O [meldonium] | 0 | – | 0 | 0 | 97.6 | 96.1 | 98.4 | 107 | 101 | 99.1 | 105 | 95.5 | 97 | 101 | 96.1 | 101 | 102 | 92 | 102 | 102 | 99.1 | 104 | 97.7 | 101 | 0 | > 10 | > 10 | > 10 | > 10 | – | – | – | – | – |
| N.N.O=C([O-])C[O-].[Pt+2] [nedaplatin] | 0 | – | – | – | – | – | – | – | – | – | – | – | – | – | – | – | – | – | – | – | – | – | – | – | – | – | – | – | – | – | – | – | – | – |
| C#C[C@]1(O)CC[C@H]2[C@@H]3CCC4=C(CCC(=O)C4)[C@H]3CC[C@@]21C [noretynodrel] | – | – | 0 | – | – | – | – | – | – | 95.2 | 99 | 93.7 | 95.9 | 101 | 99.5 | 105 | 104 | 96.1 | 99 | – | – | – | – | – | 0 | – | > 10 | > 10 | – | – | – | – | – | – |
| C[C@H](/C=C/[C@H](C)C(C)(C)O)[C@H]1CC[C@H]2/C(=C/C=C3C[C@@H](O)C[C@H](O)C3)CCC[C@]12C [paricalcitol] | 0.9 | – | 0 | 0 | 101 | 99.2 | 99.3 | 95.6 | 82.1 | 96.6 | 97.3 | 95.4 | 103 | 101 | 102 | 101 | 98.8 | 89.8 | 96.5 | 107 | 98.1 | 98.9 | 97.6 | 99.3 | 0.1 | > 10 | > 10 | > 10 | > 10 | – | – | – | – | – |
| CC(=O)c1ccc2c(c1)N(CCCN1CCC(CCO)CC1)c1ccccc1S2 [piperacetazine] | 0.9 | 0 | 0 | 0 | – | – | – | – | – | – | – | – | – | – | – | – | – | – | – | – | – | – | – | – | – | – | – | – | – | – | – | – | – | – |
| Cc1cc(CC(C)CC(C)(C)C)n(O)c(=O)c1 (centres undefined) [piroctone-olamine] | 0 | 3.4 | 0 | 4.2 | 97.6 | 102 | 102 | 110 | 93.3 | 102 | 96.1 | 104 | 95.5 | 108 | 100 | 96.3 | 103 | 97.6 | 68 | 95.1 | 93.9 | 100 | 88 | 54.8 | 1.8 | > 10 | > 10 | – | – | 98 | 97.1 | 102 | 80 | 72.4 |
| c1ccc2c(Oc3nc(Nc4ccc(N5CCOCC5)cc4)c4ncn(C5CCCCC5)c4n3)cccc2c1 [purmorphamine] | 1.7 | 0.7 | 0 | – | 97.4 | 105 | 103 | 91.9 | 77.8 | 99.2 | 96.1 | 100 | 91.7 | 90.1 | 94.9 | 94.2 | 89.8 | 98.7 | 85.9 | – | – | – | – | – | 0 | > 10 | > 10 | > 10 | – | 92.7 | 92.4 | 94.3 | 106 | 74.3 |
| C/C(=N\NC(=N)N)c1cc(NC(=O)CCCCCCCCC(=O)Nc2cc(/C(C)=N/NC(=N)N)cc(/C(C)=N/NC(=N)N)c2)cc(/C(C)=N/NC(=N)N)c1 [semapimod] | 3 | 3.3 | 1.2 | 1.3 | 91.9 | 99.6 | 104 | 90.3 | 65.6 | 100 | 93.4 | 92.1 | 94.7 | 75.9 | 99.4 | 103 | 106 | 91.1 | 71 | 101 | 103 | 96.3 | 102 | 67.6 | 2.5 | – | > 10 | – | – | 98.5 | 98.6 | 102 | 88.1 | 65.8 |
| CC(C)N1CCN(c2ccc(OCC3COC(Cn4cncn4)(c4ccc(Cl)cc4Cl)O3)cc2)CC1 (centres undefined) [terconazole] | 3.3 | 2.6 | 1.9 | 0 | 124 | 121 | 124 | 89.8 | 62.6 | 116 | 96.8 | 106 | 90.8 | 76.8 | 90.6 | 98.2 | 94.3 | 108 | 70.9 | 97.4 | 104 | 105 | 104 | 93.8 | 0.9 | – | > 10 | – | > 10 | 103 | 105 | 89.1 | 97.8 | 54.7 |
| COc1cc(/C=C(\C#N)C(N)=O)cc(CSc2nc3ccccc3s2)c1O [tyrphostin-AG-825] | 0 | – | 0 | 0 | 105 | 92.4 | 103 | 97.3 | 108 | 92.6 | 97 | 94.7 | 93.8 | 105 | 102 | 103 | 96.2 | 107 | 96.4 | 94.7 | 99.9 | 97.7 | 96 | 101 | 0 | > 10 | > 10 | > 10 | > 10 | – | – | – | – | – |
